Results taken from patent US4413005A, “Carbamate derivatives and insecticidal, miticidal or nematocidal compositions containing the same” (priority 1981, dated 1983).
Like-named read-outs stand apart in the source and are kept apart here.

Experiments:
[1] = tested on: tobacco cutworm (Spodoptera litura); test: Mortality of third-instar larvae of tobacco cutworm on cabbage (Test Example 1); format: in vivo
Description: Ten third-instar larvae of tobacco cutworm (Spodoptera litura) were placed on a cabbage (one-month-old seedling) planted in a pot, and a 50% emulsion of the compound to be tested was diluted to a specified concentration and applied to the leaves of the plant to fully wet them. The test compound of each specified concentration was tested on two pots.

[2] = tested on: green rice leafhopper (Nephotettix cincticeps); test: Mortality of female adults of green rice leafhopper on paddy rice (Test Example 2); format: in vivo; conditions: 72 h
Description: An emulsion of specified concentration was prepared from a 50% wettable powder of the compound to be tested and applied to the leaves of paddy rice (one-month-old seedlings) planted in a pot to fully wet the leaves. After the emulsion had been dried, the pot was covered with a net cage, into which 10 female adults of green rice leafhopper (Nephotettix cincticeps) were released. The compound of each specified concentration was tested on two pots.

[3] = tested on: house fly (Musca domestica); test: Local application to house fly, LD50 by Probit method (Test Example 4); format: in vivo; conditions: topical
Description: The compound to be tested was dissolved in a predetermined amount of acetone. The solution was diluted to various concentrations and locally applied to house fly (Musca domestica).

[4] = Acute oral toxicity in male mice, LD50 by Litchfield-Wilcoxon method (Test Example 5); conditions: mouse, in vivo, mortality on the seventh day
Description: Compounds of this invention were tested on male mice for acute toxicity by oral administration.

[5] = 200 ppm active ingredient, from 50% wettable powder, three days later, read-out: Mortality
[6] = 400 ppm active ingredient, from 50% wettable powder, three days later, read-out: Mortality
[7] = 800 ppm active ingredient, from 50% wettable powder, three days later, read-out: Mortality

Structure (SMILES) | mortality at 500 ppm ([1]; 72 h) [%] | mortality at 1000 ppm ([1]; 72 h) [%] | mortality at 2000 ppm ([1]; 72 h) [%] | mortality at 200 ppm [2] [%] | mortality at 400 ppm [2] [%] | mortality at 800 ppm [2] [%] | LD50 ([3]; 24 h) [mg/kg] | LD50 at 168 h [4] [mg/kg] | mortality at 500 ppm ([1]; 72 h, 500 ppm active ingredient, 50% emulsion diluted, three days later, read-out: Mortality) [%] | mortality at 1000 ppm ([1]; 72 h, 1,000 ppm active ingredient, 50% emulsion diluted, three days later, read-out: Mortality) [%] | mortality at 2000 ppm ([1]; 72 h, 2,000 ppm active ingredient, 50% emulsion diluted, three days later, read-out: Mortality) [%] | mortality at 200 ppm [2, 5] [%] | mortality at 400 ppm [2, 6] [%] | mortality at 800 ppm [2, 7] [%] | LD50 ([3]; house fly, locally applied in acetone, mortality 24 hours later, Probit method, read-out: LD50) [mg/kg]
CCOC(=O)CN(SN(C)C(=O)Oc1cccc2c1OC(C)(C)C2)C(C)CC (stereo not drawn) [Example 16] | 65 | 85 | 100 | 60 | 80 | 100 | 44.4 | 110 | – | – | – | – | – | – | –
CCCCC(CC)COC(=O)CCN(SN(C)C(=O)Oc1cccc2c1OC(C)(C)C2)C(C)C (stereo not drawn) [Example 26] | 60 | 80 | 100 | 55 | 75 | 100 | 64.7 | 150 | – | – | – | – | – | – | –
CC(C)OC(=O)CN(CC(=O)OC(C)C)SN(C)C(=O)Oc1cccc2c1OC(C)(C)C2 [Example 4] | 60 | 70 | 100 | 40 | 70 | 100 | 28.9 | 122 | – | – | – | – | – | – | –
CCCCOC(=O)CCN(SN(C)C(=O)Oc1cccc2c1OC(C)(C)C2)C(C)C [Example 25] | 75 | 90 | 100 | 65 | 90 | 100 | 50.1 | 123 | – | – | – | – | – | – | –
CCOC(=O)CCN(CC(=O)OCC)SN(C)C(=O)Oc1cccc2c1OC(C)(C)C2 [Example 9] | 80 | 90 | 100 | 60 | 90 | 100 | 31.7 | 158 | – | – | – | – | – | – | –
CCCCN(CC(=O)OCC)SN(C)C(=O)Oc1cccc2c1OC(C)(C)C2 [Example 12, 2,3-dihydro-2,2-dimethylbenzofuran-7-yl N-(N-butyl-N-ethoxycarbonylmethylaminosulfenyl)-N-methyl-carbamate] | 75 | 90 | 100 | 65 | 90 | 100 | 16.7 | 125 | – | – | – | – | – | – | –
CCOC(=O)CN(SN(C)C(=O)Oc1cccc2c1OC(C)(C)C2)c1cccc(C)c1 [Example 21] | 75 | 90 | 100 | 65 | 90 | 100 | 10.4 | 105 | – | – | – | – | – | – | –
CCOC(=O)CN(CC(=O)OCC)SN(C)C(=O)Oc1cccc2c1OC(C)(C)C2 [Example 2, 2,3-dihydro-2,2-dimethylbenzofuran-7-yl N-[N,N-bis(ethoxycarbonylmethyl)aminosulfenyl]-N-methylcarbamate] | 60 | 70 | 100 | 45 | 85 | 100 | 58.8 | 140 | – | – | – | – | – | – | –
CCOC(=O)CN(SN(C)C(=O)Oc1cccc2c1OC(C)(C)C2)C(CC)C(=O)OCC (stereo not drawn) [Example 11] | 70 | 80 | 100 | 55 | 80 | 95 | 93.9 | 93 | – | – | – | – | – | – | –
CCOC(=O)CN(SN(C)C(=O)Oc1cccc2c1OC(C)(C)C2)C(=O)c1ccc(Cl)cc1 [Example 47] | 65 | 80 | 100 | 60 | 75 | 95 | 57.8 | 95 | – | – | – | – | – | – | –
CN(SN(CC#N)CC#N)C(=O)Oc1cccc2c1OC(C)(C)C2 [Example 1, 2,3-dihydro-2,2-dimethylbenzofuran-7-yl N-[N,N-bis(cyanomethyl)aminosulfenyl]-N-methyl-carbamate] | 65 | 80 | 100 | 50 | 85 | 100 | 21.3 | 58 | – | – | – | – | – | – | –
CC(C)CN(CCC#N)SN(C)C(=O)Oc1cccc2c1OC(C)(C)C2 [Example 40] | 75 | 85 | 100 | 70 | 85 | 100 | 37.9 | 103 | – | – | – | – | – | – | –
CCOC(=O)CN(SN(C)C(=O)Oc1cccc2c1OC(C)(C)C2)C(=O)Oc1ccccc1 [Example 50] | 65 | 80 | 100 | 60 | 75 | 95 | 34.7 | 95 | – | – | – | – | – | – | –
CC(C)N(CC#N)SN(C)C(=O)Oc1cccc2c1OC(C)(C)C2 [Example 34] | 75 | 90 | 100 | 65 | 90 | 100 | 16.7 | 95 | – | – | – | – | – | – | –
CCCCN(CCC(=O)OCC)SN(C)C(=O)Oc1cccc2c1OC(C)(C)C2 [Example 27, 2,3-Dihydro-2,2-dimethylbenzofuran-7-yl N-(N-n-butyl-N-ethoxycarbonylethylaminosulfenyl)-N-methylcarbamate] | 75 | 90 | 100 | 65 | 90 | 100 | 13.8 | 105 | – | – | – | – | – | – | –
CCOC(=O)CN(SN(C)C(=O)Oc1cccc2c1OC(C)(C)C2)c1ccccc1 [Example 13, 2,3-dihydro-2,2-dimethylbenzofuran-7-yl N-(N-phenyl-N-ethoxycarbonylmethylaminosulfenyl)-N-methylcarbamate] | 75 | 90 | 100 | 65 | 90 | 100 | 12.5 | 115 | – | – | – | – | – | – | –
CCOC(=O)CN(SN(C)C(=O)Oc1cccc2c1OC(C)(C)C2)c1ccc(OC)cc1 [Example 22] | 65 | 85 | 100 | 60 | 80 | 100 | 45.2 | 88 | – | – | – | – | – | – | –
CCOC(=O)CCN(SN(C)C(=O)Oc1cccc2c1OC(C)(C)C2)C(C)C [Example 23, 2,3-Dihydro-2,2-dimethylbenzofuran-7-yl N-(N-isopropyl-N-ethoxycarbonylethylaminosulfenyl)-N-methylcarbamate] | – | – | – | – | – | – | 44.3 | 113 | 70 | 85 | 100 | 55 | 85 | 100 | –
CCOC(=O)CCN(CC(C)C)SN(C)C(=O)Oc1cccc2c1OC(C)(C)C2 [Example 30] | 65 | 85 | 100 | 60 | 80 | 100 | 23.8 | 133 | – | – | – | – | – | – | –
COC(=O)CCN(SN(C)C(=O)Oc1cccc2c1OC(C)(C)C2)C(C)C [Example 24] | 75 | 85 | 100 | 60 | 90 | 100 | 38.6 | 77 | – | – | – | – | – | – | –
CCOC(=O)CN(SN(C)C(=O)Oc1cccc2c1OC(C)(C)C2)S(=O)(=O)c1ccc(C)cc1 [Example 48] | 65 | 80 | 100 | 60 | 75 | 95 | 58.6 | 80 | – | – | – | – | – | – | –
CCOC(=O)CCN(SN(C)C(=O)Oc1cccc2c1OC(C)(C)C2)C(C)CC (stereo not drawn) [Example 29] | 60 | 80 | 100 | 45 | 75 | 100 | 22.5 | 120 | – | – | – | – | – | – | –
CNC(=O)Oc1ccccc1OC(C)C [2-Isopropoxyphenyl-N--methyl-carbamate, reference compound] | – | – | – | – | – | – | – | – | – | – | – | 0 | 0 | 0 | 22.5
CNC(=O)Oc1cccc2ccccc12 [1-Naphthyl-N--methyl-carbamate, reference compound] | 60 | 80 | 100 | – | – | – | – | – | – | – | – | – | – | – | –
